≈ marks a conversion by molar mass, not a printed value. Read-outs that look alike come from different tables or passages of the source.
Experiments:
[1] = in vivo; cited from earlier work
[2] = system: all animal species; settings: cited from earlier work
[3] = Solubility of raw material (Table 1); format: physicochemical
Source text: Table 1 summarizes the physical properties of the raw materials in the capsule.

[4] = in vivo; settings: female, CD1 nu/nu, mouse, ip
Description: To test whether the maximum tolerated dose (MTD) of vorinostat in mice can be increased with zinc supplementation, Mice (CD1 nu/nu female, 6-8 weeks old, Charles River Laboratories) are administered vehicle, 150 mg/kg (MTD) or 300 mg/kg vorinostat in vehicle (Table 11). Mice are given 0.5, 1, or 5 molar equivalents (relative to vorinostat) of zinc chloride. This corresponds to ZnCl2 doses of 38.5, 77, and 385 mg/kg for the 150 mg/kg vorinostat group.
Body weight and survival are monitored as indications of toxicity. Doses resulting in a group average body weight loss of more than 20% average will be considered non-tolerated. Likewise, doses resulting in the treatment-related death of more than 2 mice per group will be considered non-tolerated.

[5] = system: patients with cancer; settings: cited from earlier work
[6] = system: rats; settings: rat, in vivo; cited from earlier work
[7] = system: dogs; settings: dog, in vivo; cited from earlier work

| Compound | side effects [1] | Preclinical toxicity [2] | solubility ([3]; 2% CIP100 aqueous solution, aqueous with cosolvent or surfactant or cyclodextrin, 2% CIP100 aqueous soln., read-out: Solubility in 2% CIP100 aqueous soln.) [mg/mL] | solubility ([3]; 2% SD-20 aqueous solution, aqueous with cosolvent or surfactant or cyclodextrin, 2% SD-20 aqueous soln., read-out: Solubility in 2% SD-20 aqueous soln.) [mg/mL] | solubility ([3]; in water, read-out: Solubility in Water) [mg/mL] | solubility ([3]; organic solvent or mixture, in methanol, read-out: Solubility in Methanol) [mg/mL] | MTD [4] [mg/kg] | Clinical adverse experiences or side effects [5] | Preclinical toxicity [6] | Preclinical toxicity [7] |
| --- | --- | --- | --- | --- | --- | --- | --- | --- | --- | --- |
| CC(=O)N(O)CCCCCNC(=O)CCC(=O)N(O)CCCCCNC(=O)CCC(=O)N(O)CCCCCN [Desferrioxamine] | fatigue, bone marrow atrophy, thymic atrophy and neutropenia |  |  |  |  |  |  |  |  |  |
| CC(=O)NO [Lithostat, acetohydroxamic acid] | nausea, vomiting, anorexia, fatigue, malaise, reticulocytosis, anemia, thrombocytopenia, leukopenia and headache |  |  |  |  |  |  |  |  |  |
| O=C(CCCCCCC(=O)Nc1ccccc1)NO [Suberoylanilide hydroxamic acid (SAHA), N-hydroxy-N′-phenyloctanediamide] |  | weight loss or inappetence, immune suppression (leucopenia, lymphopenia, thymic atrophy) | 11.3 (≈ 42.8 mM) | 0.085 (≈ 0.322 mM) | < 0.1 | 42 (≈ 159 mM) | 150 | diarrhea, fatigue, nausea, thrombocytopenia, anorexia, dysgeusia, weight decrease, muscle spasms, alopecia, anemia, blood creatinine increase, vomiting, chills | thrombocytopenia | gastrointestinal toxicity (mucosal atrophy, acute inflammation, necrosis, multiple lesions), dehydration, electrolyte loss, testicular atrophy |

From patent publication US20120142770A1, “PHARMACEUTICAL COMPOSITIONS OF HDAC INHIBITORS AND CHELATABLE METAL COMPOUNDS, AND METAL-HDAC INHIBITOR CHELATE COMPLEXES” (Merck Sharp & Dohme Corp, priority 2006, published 2012)
